Assay type in all cases: biochemical
Assay [1] has as its target T1, recombinant human MAO-B (monoamine oxidase-B) (Homo sapiens, UniProt P27338).
T1 construct: purchased Sigma-Aldrich
T1 sequence (P27338 1-520): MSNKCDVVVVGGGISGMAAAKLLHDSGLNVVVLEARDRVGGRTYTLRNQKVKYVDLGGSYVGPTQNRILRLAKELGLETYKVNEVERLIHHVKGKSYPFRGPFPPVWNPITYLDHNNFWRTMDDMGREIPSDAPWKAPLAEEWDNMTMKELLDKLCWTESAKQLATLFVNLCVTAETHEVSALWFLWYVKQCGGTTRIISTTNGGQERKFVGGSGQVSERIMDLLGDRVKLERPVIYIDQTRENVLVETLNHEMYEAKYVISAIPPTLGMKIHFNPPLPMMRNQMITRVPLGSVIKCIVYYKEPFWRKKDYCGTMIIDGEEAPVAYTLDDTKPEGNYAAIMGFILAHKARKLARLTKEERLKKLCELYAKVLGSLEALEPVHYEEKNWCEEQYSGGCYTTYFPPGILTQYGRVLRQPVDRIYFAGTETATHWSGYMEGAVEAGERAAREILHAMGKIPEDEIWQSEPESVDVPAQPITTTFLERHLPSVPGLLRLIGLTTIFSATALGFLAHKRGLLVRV
Put plainly: Activity evaluation on recombinant human MAO-B (Amplex Red/HRP-coupled assay, 1 mM benzylamine substrate). The following applies: read-out: Inhibitory Activity (IC50, nM) MAO-B. The method in brief: (§1)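 Enzyme was preincubated with compounds (8-point 1:3 series, final DMSO <1%) 30 min at 37 °C in 50 mM sodium phosphate pH 7.4, then given 200 uM Amplex Red and 1 U/mL HRP with substrate. H2O2-derived resorufin fluorescence (ex 544/em 590 nm) was followed over 1–2 h; IC50 came from 4-parameter logistic fits of signal-rate inhibition versus DMSO control.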

The target in another assay is T2, recombinant human VAP-1 (Homo sapiens, UniProt Q16853).
T2 construct: purchased R&D systems
T2 sequence (Q16853 1-763): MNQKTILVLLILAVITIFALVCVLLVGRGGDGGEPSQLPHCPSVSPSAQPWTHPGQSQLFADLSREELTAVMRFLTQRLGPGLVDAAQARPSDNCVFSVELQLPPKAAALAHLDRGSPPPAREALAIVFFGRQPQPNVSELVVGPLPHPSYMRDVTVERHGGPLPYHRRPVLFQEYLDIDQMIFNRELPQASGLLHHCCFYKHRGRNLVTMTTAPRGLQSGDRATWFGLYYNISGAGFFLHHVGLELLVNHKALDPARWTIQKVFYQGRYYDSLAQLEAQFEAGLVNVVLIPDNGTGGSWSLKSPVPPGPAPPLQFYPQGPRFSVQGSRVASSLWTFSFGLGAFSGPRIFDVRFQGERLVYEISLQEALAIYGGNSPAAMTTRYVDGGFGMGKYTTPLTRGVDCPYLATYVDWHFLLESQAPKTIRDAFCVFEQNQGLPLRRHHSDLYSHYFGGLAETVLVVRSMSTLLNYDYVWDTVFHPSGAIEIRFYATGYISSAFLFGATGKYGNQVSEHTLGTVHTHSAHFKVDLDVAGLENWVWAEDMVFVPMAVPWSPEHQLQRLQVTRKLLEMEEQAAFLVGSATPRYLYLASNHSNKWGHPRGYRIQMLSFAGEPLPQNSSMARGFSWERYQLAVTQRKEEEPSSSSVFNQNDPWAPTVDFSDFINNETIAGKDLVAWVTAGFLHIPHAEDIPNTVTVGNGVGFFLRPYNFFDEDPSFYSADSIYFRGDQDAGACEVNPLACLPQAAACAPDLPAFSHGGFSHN
Put plainly: Activity evaluation on recombinant human VAP-1 (Amplex Red/HRP-coupled hydrogen peroxide assay, benzylamine substrate). The following applies: read-out: Inhibitory Activity (IC50, nM) human VAP-1. The method in brief: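 Recombinant human VAP-1 in 50 mM sodium phosphate pH 7.4 preincubated 30 min at 37 °C with compound (8-point 1:3 series, <1% DMSO), then 1 mM benzylamine, 200 uM Amplex Red, 1 U/mL HRP added. H2O2-derived resorufin fluorescence (ex 544/em 590) followed 1–2 h; IC50 from four-parameter fit of rate inhibition.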

For assay [2], the target named is T3, recombinant human DAO (diamine oxidase) (Homo sapiens, UniProt P19801).
T3 construct: purchased R&D systems
T3 sequence (P19801 20-751): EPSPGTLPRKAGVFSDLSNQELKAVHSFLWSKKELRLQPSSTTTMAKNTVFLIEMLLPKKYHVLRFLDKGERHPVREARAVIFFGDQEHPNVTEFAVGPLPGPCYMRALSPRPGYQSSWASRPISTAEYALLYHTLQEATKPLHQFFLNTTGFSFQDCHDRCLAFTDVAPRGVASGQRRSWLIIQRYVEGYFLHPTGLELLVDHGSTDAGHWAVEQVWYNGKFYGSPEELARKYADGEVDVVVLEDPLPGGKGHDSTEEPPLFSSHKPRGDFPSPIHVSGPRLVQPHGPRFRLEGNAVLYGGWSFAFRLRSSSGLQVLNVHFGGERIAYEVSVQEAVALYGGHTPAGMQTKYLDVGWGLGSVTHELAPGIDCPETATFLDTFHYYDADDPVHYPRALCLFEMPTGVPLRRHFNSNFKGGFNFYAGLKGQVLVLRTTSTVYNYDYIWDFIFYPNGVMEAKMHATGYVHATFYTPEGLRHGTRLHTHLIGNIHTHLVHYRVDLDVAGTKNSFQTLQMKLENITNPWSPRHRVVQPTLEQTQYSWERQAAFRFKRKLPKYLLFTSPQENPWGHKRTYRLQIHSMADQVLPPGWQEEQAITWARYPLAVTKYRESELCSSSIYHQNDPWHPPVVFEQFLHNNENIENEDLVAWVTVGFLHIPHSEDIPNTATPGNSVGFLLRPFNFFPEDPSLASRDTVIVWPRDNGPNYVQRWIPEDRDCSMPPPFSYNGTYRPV
Briefly: Activity evaluation on recombinant human DAO (Amplex Red/HRP-coupled assay, 1 mM putrescine substrate). The following applies: read-out: Inhibitory Activity (IC50, nM) DAO. In short, it runs like this: as §1

Assay [3] addresses T4, recombinant human MAO-A (monoamine oxidase-A) (Homo sapiens, UniProt P21397).
T4 construct: purchased Sigma-Aldrich
T4 sequence (P21397 1-527): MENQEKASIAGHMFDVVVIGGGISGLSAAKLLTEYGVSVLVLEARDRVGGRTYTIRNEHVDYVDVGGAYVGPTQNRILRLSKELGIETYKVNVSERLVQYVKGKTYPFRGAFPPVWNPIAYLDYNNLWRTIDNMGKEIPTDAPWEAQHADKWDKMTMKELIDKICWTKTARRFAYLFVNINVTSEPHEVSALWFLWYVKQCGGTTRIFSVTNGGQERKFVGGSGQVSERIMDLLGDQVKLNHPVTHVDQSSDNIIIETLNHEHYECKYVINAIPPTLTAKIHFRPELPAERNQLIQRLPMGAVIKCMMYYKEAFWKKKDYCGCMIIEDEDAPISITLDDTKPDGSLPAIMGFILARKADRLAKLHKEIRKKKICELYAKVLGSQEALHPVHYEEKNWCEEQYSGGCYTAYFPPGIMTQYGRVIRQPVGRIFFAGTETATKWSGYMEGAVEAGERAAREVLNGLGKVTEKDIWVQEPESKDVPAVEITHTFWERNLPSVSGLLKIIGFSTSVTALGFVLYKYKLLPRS
Briefly: Activity evaluation on recombinant human MAO-A (Amplex Red/HRP-coupled assay, 0.5 mM tyramine substrate). Particulars: read-out: Inhibitory Activity (IC50, nM) MAO-A. In short, it runs like this:
as §1

Where [4] appears, read: recombinant human VAP-1, 30 min preincubation at 37° C., 1 mM benzylamine.

The values below come from patent US11168073B2, “3,3-difluoroallylamines or salts thereof and pharmaceutical compositions comprising the same” (YUHAN CORPORATION, priority 2018, dated 2021).

Counter-ions that a name gives are not always drawn. Like-named read-outs stand apart in the source and are kept apart here. Bounds are passed on as bounds.

`NCC(Cn1ncn(Cc2ccc(-c3cn[nH]c3)s2)c1=O)=C(F)F` [Example 292, 2-[2-(aminomethyl)-3,3-difluoro-allyl]-4-[[5-(1H-pyrazol-4-yl)-2-thienyl]methyl]-1,2,4-triazol-3-one Trifluoroacetate]: the IC50 in assay [1] (1 mM benzylamine substrate) was above 100000 nM; on recombinant human VAP-1 (recombinant human VAP-1, benzylamine substrate), 2.7 nM; in assay [2] (1 mM putrescine substrate) it was above 100000 nM; in assay [3] (0.5 mM tyramine substrate) it was 86200 nM.
For the compound `NCC(Cn1ncn(Cc2ccc(C#Cc3cnc4c(c3)OCC(=O)N4)s2)c1=O)=C(F)F` [Example 170, 7-[2-[5-[[1-[2-(aminomethyl)-3,3-difluoro-allyl]-5-oxo-1,2,4-triazol-4-yl]methyl]-2-thienyl]ethynyl]-4H-pyrido[3,2-b][1,4]oxazin-3-one Trifluoroacetate], the half-maximal inhibitory concentration (IC50) in assay [1] (1 mM benzylamine) is 14000 nM; on recombinant human VAP-1 (setting [4]), 0.8 nM; in assay [2] (1 mM putrescine) it was above 10000 nM; in assay [3] (0.5 mM tyramine), above 100000 nM.
With `Cc1cc(-c2csc(Cn3cnn(CC(CN)=C(F)F)c3=O)c2)cc2c1NC(=O)CC2` [Example 151, 6-[5-[[1-[2-(aminomethyl)-3,3-difluoro-allyl]-5-oxo-1,2,4-triazol-4-yl]methyl]-3-thienyl]-8-methyl-3,4-dihydro-1H-quinolin-2-one Trifluoroacetate], the IC50 in assay [1] (1 mM benzylamine) is 26100 nM; at recombinant human VAP-1 (setting [4]), 0.3 nM; in assay [2] (1 mM putrescine), 6600 nM; in assay [3] (0.5 mM tyramine) it was above 100000 nM.
